Patent US7205162B1, “Artificial antibodies, method of producing the same and use thereof” (priority 1995, dated 2007)

Legend:
[1] = test system: natural antibodies (Ab's) against theophylline; settings: data from ref 22; cited from earlier work
[2] = Molecularly Imprinted Sorbent Assay (MIA), competitive binding of 3H-theophylline to anti-theophylline polymer; settings: for Cross-reaction (%) ArtAb, Theophylline antibodies: molar ratio of theophylline to ligand giving 50% inhibition of 3H-theophylline binding to polymer, ligands added to drug free serum
[3] = test system: natural antibodies (Ab's) against diazepam; settings: data from ref 24; cited from earlier work
[4] = Molecularly Imprinted Sorbent Assay (MIA), competitive binding of 3H-diazepam to anti-diazepam polymer; settings: molar ratio of diazepam to ligand giving 50% inhibition of 3H-diazepam binding to polymer; ligands added to drug free serum
[5] = Scatchard plot analysis with radio-labelled ligand, anti-diazepam polymer
Text: (§1) The equilibrium dissociation constants (KD) for binding of the drugs to the corresponding polymers were estimated by Scatchard plot analysis using radio-labelled ligands.

[6] = Scatchard plot analysis with radio-labelled ligand, anti-theophylline polymer; type: binding; settings: LIGAND programme
Text: as §1

Cn1c(=O)c2[nH]c(=O)[nH]c2n(C)c1=O [1,3-Dimethyluric acid]
Cross-reaction (%) Ab*, Theophylline antibodies [1]: <1% | Cross-reaction (%) ArtAb, Theophylline antibodies [2]: <1%

Cn1c(=O)[nH]c2[nH]c(=O)[nH]c2c1=O [1-Methyluric acid]
Cross-reaction (%) Ab*, Theophylline antibodies [1]: <1% | Cross-reaction (%) ArtAb, Theophylline antibodies [2]: <1%

Cn1c(=O)[nH]c(=O)c2[nH]cnc21 [3-Methylxantin, 3-methylxanthine]
Cross-reaction (%) Ab*, Theophylline antibodies [1]: 2% | cross-reactivity in MIA for theophylline (in words) [2]: some cross-reactivity | Cross-reaction (%) ArtAb, Theophylline antibodies [2]: 7%

Cn1c(=O)c2c(ncn2CCO)n(C)c1=O [7-(β-Hydroxyethyl)-1,3-di-methylxanthine]
Cross-reaction (%) Ab*, Theophylline antibodies [1]: <1% | Cross-reaction (%) ArtAb, Theophylline antibodies [2]: <1%

Cc1nnc2n1-c1ccc(Cl)cc1C(c1ccccc1)=NC2 [Alprazolam]
Cross-reaction (%) Ab**, Diazepam antibodies [3]: 44% | Cross-reaction (%) ArtAb, Diazepam antibodies [4]: 40%

CNC1=Nc2ccc(Cl)cc2C(c2ccccc2)=[N+]([O-])C1 [Chlordiazepoxid]
Cross-reaction (%) Ab**, Diazepam antibodies [3]: <1% | Cross-reaction (%) ArtAb, Diazepam antibodies [4]: 2%

O=C1CN=C(c2ccccc2Cl)c2cc([N+](=O)[O-])ccc2N1 [Clonazepam]
Cross-reaction (%) Ab**, Diazepam antibodies [3]: 5% | Cross-reaction (%) ArtAb, Diazepam antibodies [4]: 9%

O=C1CN=C(c2ccccc2)c2cc(Cl)ccc2N1 [Demethyldiazepam, Desmethyldiazepam]
Cross-reaction (%) Ab**, Diazepam antibodies [3]: 32% | Cross-reaction (%) ArtAb, Diazepam antibodies [4]: 27%

CN1C(=O)CN=C(c2ccccc2)c2cc(Cl)ccc21 [Diazepam]
Kd ([5]; read-out: KD, high affinity binding sites, LIGAND programme): 37.6 nM | Kd ([5]; read-out: KD, low affinity binding sites, LIGAND programme): 73.6 nM | Cross-reaction (%) Ab**, Diazepam antibodies [3]: 100% | Cross-reaction (%) ArtAb, Diazepam antibodies [4]: 100%

O=c1[nH]cnc2nc[nH]c12 [Hypoxanthine]
Cross-reaction (%) Ab*, Theophylline antibodies [1]: <1% | Cross-reaction (%) ArtAb, Theophylline antibodies [2]: <1%

O=C1Nc2ccc(Cl)cc2C(c2ccccc2Cl)=NC1O (stereo not shown) [Lorazepam]
Cross-reaction (%) Ab**, Diazepam antibodies [3]: 1% | Cross-reaction (%) ArtAb, Diazepam antibodies [4]: 4%

Cn1cnc2c1c(=O)[nH]c(=O)n2C [Theobromine, 3,7-dimetylxanthine]
Cross-reaction (%) Ab*, Theophylline antibodies [1]: <1%

Cn1c(=O)c2[nH]cnc2n(C)c1=O [Theophylline, 1,3-dimethylxanthine]
Cross-reaction (%) Ab*, Theophylline antibodies [1]: 100% | Kd ([6]; read-out: KD, high affinity binding sites): 346 nM | Kd ([6]; read-out: KD, low affinity binding sites): 65500 nM | Cross-reaction (%) ArtAb, Theophylline antibodies [2]: 100%

O=c1[nH]c(=O)c2[nH]c(=O)[nH]c2[nH]1 [Uric acid]
Cross-reaction (%) Ab*, Theophylline antibodies [1]: <1% | Cross-reaction (%) ArtAb, Theophylline antibodies [2]: <1%

O=c1[nH]c(=O)c2[nH]cnc2[nH]1 [Xanthine]
Cross-reaction (%) Ab*, Theophylline antibodies [1]: <1% | Cross-reaction (%) ArtAb, Theophylline antibodies [2]: <1%

Cn1c(=O)c2[nH]cnc2n(C)c1=O [[^3H]-theophylline]
time to binding equilibrium ([2]; 12.5 mg polymer, acetonitrile-acetic acid (99/1), room temperature): 8 h | share of the binding occurred within 3 h ([2]; within 3 h, acetonitrile-acetic acid (99/1), room temperature): 80% | share of the binding occurred within 5 h ([2]; within 5 h, acetonitrile-acetic acid (99/1), room temperature): 90%
